Key:
Assay in all cases: In vitro MMP inhibition, IC50 determination (fluorogenic substrate I)
Format in all cases: biochemical
Human recombinant MMP-13 = molecular target: T1, Human recombinant MMP-13 (Homo sapiens, UniProt P45452)
T1 construct: made in house; host or cells: baculovirus / insect cells
Procedure, shortened: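 Fluorescence at 415 nm (excitation 328 nm) reports Gly-Leu cleavage of 4 μM quenched methoxycoumarin peptide substrate I. Human recombinant MMP-13, activated by trypsin or APMA, was incubated at room temperature with varied inhibitor concentrations in pH 7.5 Tris/NaCl/CaCl2 buffer; IC50 derived from reduced fluorescence.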

Human recombinant MMP-2 = molecular target: T2, Human recombinant MMP-2 (Homo sapiens, UniProt P08253)
T2 construct: made in house; host or cells: MMP-2-transfected p2AHT2 cells
T2 sequence (P08253 110-660): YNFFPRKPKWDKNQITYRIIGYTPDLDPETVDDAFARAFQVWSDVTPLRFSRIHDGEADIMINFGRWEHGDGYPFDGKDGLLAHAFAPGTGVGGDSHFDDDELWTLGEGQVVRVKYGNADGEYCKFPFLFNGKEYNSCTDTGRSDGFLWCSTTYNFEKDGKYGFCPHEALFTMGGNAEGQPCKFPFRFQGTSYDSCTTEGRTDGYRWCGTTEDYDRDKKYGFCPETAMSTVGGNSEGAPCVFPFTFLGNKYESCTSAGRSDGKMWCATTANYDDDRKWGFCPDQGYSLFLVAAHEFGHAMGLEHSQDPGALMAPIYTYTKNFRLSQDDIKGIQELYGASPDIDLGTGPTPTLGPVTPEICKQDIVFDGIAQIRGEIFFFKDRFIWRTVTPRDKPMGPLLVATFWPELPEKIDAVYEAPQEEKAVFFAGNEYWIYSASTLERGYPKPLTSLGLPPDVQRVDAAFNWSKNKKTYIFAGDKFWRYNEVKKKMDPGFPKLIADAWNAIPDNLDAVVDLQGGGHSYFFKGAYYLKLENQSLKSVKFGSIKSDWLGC
Procedure, shortened: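 IC50 was derived from the concentration-dependent fall in fluorescence (ex 328, em 415 nm) on Gly-Leu cleavage of 4 μM MCA/Dpa-quenched substrate I. Assays ran at room temperature in pH 7.5 Tris/NaCl/CaCl2/Brij buffer with MMP-2 activated by trypsin or APMA; inhibitors were diluted from 1% DMSO stocks.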

Human recombinant MMP-1 = molecular target: T3, Human recombinant MMP-1 (Homo sapiens, UniProt P03956); settings: value outside parentheses (Ki in parenthesis)
T3 construct: made in house; host or cells: MMP-1-transfected HT-1080 cells (spent media)
T3 sequence (P03956 100-469): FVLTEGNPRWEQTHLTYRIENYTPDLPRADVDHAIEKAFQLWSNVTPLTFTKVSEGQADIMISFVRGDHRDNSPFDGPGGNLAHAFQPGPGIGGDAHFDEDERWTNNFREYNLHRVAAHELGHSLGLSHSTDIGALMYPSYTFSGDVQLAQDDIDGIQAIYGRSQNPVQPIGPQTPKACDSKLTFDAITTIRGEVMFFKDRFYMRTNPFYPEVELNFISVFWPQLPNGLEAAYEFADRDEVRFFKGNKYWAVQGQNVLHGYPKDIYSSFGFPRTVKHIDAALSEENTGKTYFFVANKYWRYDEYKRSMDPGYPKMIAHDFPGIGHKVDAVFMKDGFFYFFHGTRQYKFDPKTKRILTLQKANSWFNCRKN
Protocol: Several hydroxamates and salts thereof were analyzed in in vitro assays to determine their ability to inhibit the MMP cleavage of peptide substrates. Inhibition (Ki) and IC50 constants were calculated from the assayed hydroxamate-MMP interactions.
Human recombinant MMP-1, MMP-2, MMP-9, MMP-13, and MMP-14 were used in this assay. All enzymes were prepared in Assignee's laboratories following usual laboratory procedures. Protocols for the preparation and use of these enzymes are available in the scientific literature. See, e.g., Enzyme Nomenclature (Academic Press, San Diego, Calif., 1992) (and the citations therein). See also, Frije et al., J. Biol. Chem., 26(24), 16766-73 (1994).
The MMP-1 proenzyme was purified from the spent media of MMP-1-transfected HT-1080 cells provided by Dr. Harold Welgus of Washington University (St. Louis, Mo.). The protein was purified on a zinc chelating column.
All MMPs were activated using 4-aminophenylmercuric acetate (“APMA”, Sigma Chemical, St. Louis, Mo.) or trypsin. MMP-9 also was activated using human recombinant MMP-3 (purified in Assignee's laboratory following standard cloning and purification techniques).
Two fluorogenic, methoxycoumarin-containing polypeptide substrates were used in the MMP inhibition assays:
MCA-ProLeuGlyLeuDpaAlaArgNH2 (I)
Here, “Dpa” is 3-(2,4-dinitrophenyl)-L-2,3-diaminopropionyl group, and “MCA” is 7-methoxycoumarin-4-yl acetyl. Substrate (I) was purchased from Baychem (Redwood City, Calif.), and substrate II was prepared Assignee's laboratory. Substrate I was used in the IC50 determination assays, while substrate II was used in the Ki determination assays. In the absence of MMP inhibitory activity, either substrate is cleaved at the Gly-Leu peptide bond. This cleavage separates the highly fluorogenic peptide from the 2,4-dinitrophenyl quencher, thus resulting in increase of fluorescent intensity.
The stock solutions of the assayed hydroxamates (or salts thereof) were prepared in 1% dimethyl sulfoxide (DMSO). These stock solutions were diluted in Buffer A (100 mM Tris-HCl, 100 mM NaCl, 10 mM CaCl2, 0.05% polyoxyethylene 23 lauryl ether, pH 7.5) to obtain solutions with different hydroxamate concentrations, i.e., assay solutions with different concentrations of the assayed MMP inhibitory compound. The experiment controls contained the same amount of Buffer A/DMSO as the assayed sample, but contained no hydroxamate (or salt thereof).
The assays from which the IC50 determinations were made were performed as follows. The MMPs were activated with either trypsin or APMA (4-aminophenylmercuric acetate, Sigma Chemical, St. Louis, Mo.). The assayed hydroxamate samples were, incubated in Microfluorrm White Plates (Dynatech, Chantilly, VA) and analyzed on a Perkin Elmer L550 plate reader (Norwalk, Conn.). The excitation wavelength was 328 nm, and the emission wavelength—415 nm. All samples (assayed hydroxamates and controls) were incubated in separate plates at room temperature in the presence of 4 μM of MMP substrate (I). As stated in the previous paragraph, samples containing varying concentrations of the same assayed hydroxamate were prepared. Inhibition was measured as a reduction in fluorescent intensity as a function of MMP inhibitor concentration.

[1] = value outside parentheses (Ki in parenthesis)

IC50 (Human recombinant MMP-13; [1]) [nM] | IC50 (Human recombinant MMP-2; [1]) [nM] | IC50 (Human recombinant MMP-1) [nM] | Compound | further results
120 | 270 | > 10000 | CC(C)=CC1C(COc2ccc(S(=O)(=O)C3(C(=O)NO)CCOCC3)cc2)C1(C)C (centres unmarked) [Example 471] | –
27 | 165 | > 10000 | O=C(NO)C1(S(=O)(=O)c2ccc(OCCCOCc3cc(C(F)(F)F)cc(C(F)(F)F)c3)cc2)CCOCC1 [Example 454] | –
500 | > 10000 | > 10000 | CC(C)(COc1ccc(S(=O)(=O)C2(C(=O)NO)CCOCC2)cc1)CSc1ccc(OC(F)(F)F)cc1 [Example 435] | –
1500 | 2500 | > 10000 | CC(C)(CCc1ccccc1)Oc1ccc(S(=O)(=O)C2(C(=O)NO)CCOCC2)cc1 [Example 468] | –
100 | 1500 | > 10000 | COc1cccc(SCC(C)(C)COc2ccc(S(=O)(=O)C3(C(=O)NO)CCOCC3)cc2)c1 [Example 436] | –
670 | 700 | > 10000 | CCCCCN(C)c1ccc(S(=O)(=O)C2(C(=O)NO)CCOCC2)cc1 [Example 459] | –
3 | 12 | > 10000 | COC(C)(C)CCCC(C)CCOc1ccc(S(=O)(=O)C2(C(=O)NO)CCOCC2)cc1 (centres unmarked) [Example 474] | –
590 | 2200 | > 10000 | CC(C)OCCCNc1ccc(S(=O)(=O)C2(C(=O)NO)CCOCC2)cc1 [Example 461] | –
1400 | 3500 | > 10000 | COC(=O)CCCN(C)c1ccc(S(=O)(=O)C2(C(=O)NO)CCOCC2)cc1 [Example 458] | –
3 | 7 | > 10000 | CC(C)=CCCC(C)CCOc1ccc(S(=O)(=O)C2(C(=O)NO)CCOCC2)cc1 (centres unmarked) [Example 470] | –
60 | 145 | > 10000 | CC(CCOc1ccc(S(=O)(=O)C2(C(=O)NO)CCOCC2)cc1)CC(C)(C)C (centres unmarked) [Example 469] | –
2 | 1.5 | 1300 | CC1CCCCC1COc1ccc(S(=O)(=O)C2(C(=O)NO)CCOCC2)cc1 (centres unmarked) [Example 477] | –
> 10000 | > 10000 | > 10000 | CN(CCCC(=O)O)c1ccc(S(=O)(=O)C2(C(=O)NO)CCOCC2)cc1 [Example 457] | –
8 | 100 | – | COc1ccc(OC)c(-c2nnc(CCCOc3ccc(S(=O)(=O)C4(C(=O)NO)CCOCC4)cc3)o2)c1 [Example 291] | –
138 | 20.6 | – | COc1cc2c(cc1OC)CN(CCCCOc1ccc(S(=O)(=O)C3(C(=O)NO)CCOCC3)cc1)CC2 [Example 338] | –
– | – | – | O=C(NCCSc1ccc(S(=O)(=O)C2(C(=O)NO)CCOCC2)cc1)c1ccc(-c2ccc(O)cc2)cc1 [Example 605] | IC50 (Human recombinant MMP-13; value outside parentheses): 3.8 nM; IC50 (Human recombinant MMP-2; value outside parentheses): 44 nM
– | – | – | O=C(NCCOc1ccc(S(=O)(=O)C2(C(=O)NO)CCOCC2)cc1)c1cc2ccccc2s1 [Example 619] | IC50 (Human recombinant MMP-13; value outside parentheses): 1.5 nM; IC50 (Human recombinant MMP-2; value outside parentheses): 66.2 nM
– | – | – | COCCN1CCC(C(=O)NO)(S(=O)(=O)c2ccc(OCCCn3nnc(-c4cc(F)ccc4C)n3)cc2)CC1 [Example 141] | IC50 (Human recombinant MMP-13; value outside parenthesis): 3.6 nM; IC50 (Human recombinant MMP-2; value outside parenthesis): 32.5 nM

IC50 (Human recombinant MMP-13; [1]) [nM] | IC50 (Human recombinant MMP-2; [1]) [nM] | IC50 (Human recombinant MMP-1) [nM] | Compound | further results
114 | 251 | – | CC(=O)N1CC[C@@H](Oc2ccc(S(=O)(=O)C3(C(=O)NO)CCOCC3)cc2)C1 [Example 427] | –
– | – | – | O=C(NO)C1(S(=O)(=O)c2ccc(OCCCc3csc(-c4ccccc4)n3)cc2)CCOCC1 [Example 107] | IC50 (Human recombinant MMP-13; value outside parenthesis): 5.5 nM; IC50 (Human recombinant MMP-2; value outside parenthesis): 34 nM
14.6 | 768 | – | COc1ccc(C(=O)NCCCNc2ccc(S(=O)(=O)C3(C(=O)NO)CCOCC3)cc2)cc1 [Example 358] | –
350 | 425 | – | CCOCC(C)(C)COc1ccc(S(=O)(=O)C2(C(=O)NO)CCOCC2)cc1 [Example 456] | –
– | – | – | O=C(NCCCOc1ccc(S(=O)(=O)C2(C(=O)NO)CCOCC2)cc1)N1CCOCC1 [Example 497] | IC50 (Human recombinant MMP-13; value outside parentheses): 23.5 nM; IC50 (Human recombinant MMP-2; value outside parentheses): 1450 nM
– | – | – | O=C(O)CCCOc1ccc(S(=O)(=O)C2(C(=O)NO)CCOCC2)cc1 [Example 273] | IC50 (Human recombinant MMP-13; value outside parenthesis): 304 nM; IC50 (Human recombinant MMP-2; value outside parenthesis): 1010 nM
25 | 285 | – | O=C(NO)C1(S(=O)(=O)c2ccc(OCCCSc3nc4c(Cl)cc(Cl)cc4o3)cc2)CCOCC1 [Example 407] | –
– | – | – | O=C(NCCSc1ccc(S(=O)(=O)C2(C(=O)NO)CCOCC2)cc1)c1cc2ccccc2s1 [Example 597] | IC50 (Human recombinant MMP-13; value outside parentheses): 12.1 nM; IC50 (Human recombinant MMP-2; value outside parentheses): 471 nM
– | – | – | O=C(NCCOc1ccc(S(=O)(=O)C2(C(=O)NO)CCOCC2)cc1)c1ccc(Br)s1 [Example 620] | IC50 (Human recombinant MMP-13; value outside parentheses): 4.1 nM; IC50 (Human recombinant MMP-2; value outside parentheses): 16.2 nM
– | – | – | O=C(NCCOc1ccc(S(=O)(=O)C2(C(=O)NO)CCOCC2)cc1)c1nc2ccccc2s1 [Example 589] | IC50 (Human recombinant MMP-13; value outside parentheses): 0.4 nM; IC50 (Human recombinant MMP-2; value outside parentheses): 9.9 nM
1.7 | 59 | – | O=C(NCCCOc1ccc(S(=O)(=O)C2(C(=O)NO)CCOCC2)cc1)c1ccccn1 [Example 382] | –
8 | 650 | – | O=C(NCCCOc1ccc(S(=O)(=O)C2(C(=O)NO)CCOCC2)cc1)C1CCCCC1 [Example 399] | –
– | – | – | CC(C)Cc1ccc(-c2nnc(CCCOc3ccc(S(=O)(=O)C4(C(=O)NO)CCOCC4)cc3)o2)cc1 [Example 179] | IC50 (Human recombinant MMP-13; value outside parenthesis): 1.1 nM; IC50 (Human recombinant MMP-2; value outside parenthesis): 247 nM
– | – | – | COCCN1CCC(C(=O)NO)(S(=O)(=O)c2ccc(OCCCn3nnc(-c4cccs4)n3)cc2)CC1 [Example 143] | IC50 (Human recombinant MMP-13; value outside parenthesis): 1.4 nM; IC50 (Human recombinant MMP-2; value outside parenthesis): 4.9 nM
40 | 3300 | – | COC(=O)c1ccccc1S(=O)(=O)N1CC(Oc2ccc(S(=O)(=O)C3(C(=O)NO)CCOCC3)cc2)C1 [Example 482] | –
2.2 | 83 | – | N#Cc1ccc(C(=O)NCCCOc2ccc(S(=O)(=O)C3(C(=O)NO)CCOCC3)cc2)cc1 [Example 387] | –
0.6 | 21 | – | O=C(NCCCOc1ccc(S(=O)(=O)C2(C(=O)NO)CCOCC2)cc1)c1ccc(-c2ccccc2)cc1 [Example 365] | –

Source: US20040024024A1, “Aromatic sulfone hydroxamates and their use as protease inhibitors” (priority 2001, published 2004)
